From patent US20030018027A1 (priority 2001, published 2003)

How the values were obtained:
[1] = tested on: excessive barking; assay: Excessive barking of a Pomeranian with separation anxiety during 30 minutes after every one left the room; type: in vivo, dog (Pomeranian)
Description: The following experiment was performed by using an 11 years old Pomeranian (4.5 kg weight) in which a symptom of separation anxiety was confirmed.
The experimental animal was fed in a room which was equipped with an air conditioner keeping 22° C. and were provided with 200 g of canned dog food (Science Diet Maintenance, beef can, Japan Hills Colgate ) twice per day in the morning and in the evening. Water was freely provided. The animals had been habituated in the experimental cages before recording the frequency of excessive barking with a set up video camera. Excessive barking during 30 minutes after every one left the room was recorded for 2 days. The barking frequency on day 1 was 178 times and 203 times on day 2. […] The barking frequency for that recording was 0 (zero).

[2] = tested on: kainate receptors; details: cited from earlier work
[3] = tested on: excessive barking; assay: Excessive barking of beagles during 5 minutes before feeding after intravenous SKF97541; type: in vivo, dog (beagles); details: mean and standard error
Description: Two ovariectomized healthy female beagles (10 kg) of 2 years old were used for the following experiments.
(§1) The experiments was performed for seven (7) days as one cycle and the data were recorded, which were repeated for 3 months (12 cycles). The data were statistically processed. The experimental dogs were fed in a room which was equipped with an air conditioner keeping 22° C. During the first 6 days, the animals were fed with 400 g of food (Science Diet Maintenance, dry, Japan Hills Colgate) at 4 o'clock every day. Water was freely provided. The animals were habituated in the experimental cages. The seventh (7th) day in each cycle, the condition was kept except that the indicated amount of SKF97541 ([…] receptor agonist) was intravenously administrated at 2 o'clock P.M. The frequency of barking during 5 minutes before feeding was recorded every day by a video camera. The ratio of the frequency of barking on the day where the animals were received SKF97541 to the mean values of the barking frequency during the first 6 days where the animals were not received SKF97541 is indicated as percentages in Table 1 and FIG. 1.

[4] = General symptom of animals, beagle experiment; type: in vivo, dog (beagles); details: beagles, intravenous SKF97541
Description: as §1

NCCCC(=O)O [GABA, γ-aminobutyric acid]
barking frequency during 30 minutes after every one left the room ([1]; 150 mg powdered GABA mixed with canned dog food, oral, untreated days 178 and 203 times): 0

C=C(C)[C@H]1CN[C@H](C(=O)O)[C@H]1CC(=O)O [kainate]
induction of running activity in rat [2]: induced

CP(=O)(O)CCCN [SKF97541, 3-aminopropyl(methyl)phosphinic acid]
barking frequency during 30 minutes after every one left the room ([1]; SKF97541 intravenous 0.05 mg/kg body weight): did not bark
barking frequency during 30 minutes after every one left the room ([1]; SKF97541 intravenous 0.1 mg/kg body weight): did not bark
(frequency of barking on the administrated day) / (frequency of barking on non-administrated days) ([3]; amount of administrated SKF97541 0.025 (unit not given)): 118.2 ± 0.0%
(frequency of barking on the administrated day) / (frequency of barking on non-administrated days) ([3]; amount of administrated SKF97541 0.05 (unit not given)): 90.2 ± 6.2%
(frequency of barking on the administrated day) / (frequency of barking on non-administrated days) ([3]; amount of administrated SKF97541 0.1 (unit not given)): 44.0 ± 1.1%
(frequency of barking on the administrated day) / (frequency of barking on non-administrated days) ([3]; amount of administrated SKF97541 0.2 (unit not given)): 8.8 ± 8.8%
(frequency of barking on the administrated day) / (frequency of barking on non-administrated days) ([3]; amount of administrated SKF97541 0.5 (unit not given)): 0%
general symptom of animals [4]: no notable point regarding to the general symptom of animals was observed

O=C1N=c2cc([N+](=O)[O-])c([N+](=O)[O-])cc2=NC1=O [DNQX, 6,7-dinitroquinoxaline-2,3-dione]
inhibition of running activity induced by kainate ([2]; rat): inhibited
